Reference: patent US11795177B2, “Substituted quinoline analogs as aldehyde dehydrogenase 1A1 (ALDH1A1) inhibitors” (THE UNITED STATES OF AMERICA, AS REPRESENTED BY THE …, priority 2017, dated 2023)
Counter-ions that a name gives are not always drawn. Like-named read-outs stand apart in the source and are kept apart here.

Key:
ALDH1A1 enzyme = target: T1, ALDH1A1 enzyme (Homo sapiens, UniProt P00352); assay: ALDH1A1 enzymatic assay (in vitro); assay type: biochemical
T1 sequence (P00352 1-501): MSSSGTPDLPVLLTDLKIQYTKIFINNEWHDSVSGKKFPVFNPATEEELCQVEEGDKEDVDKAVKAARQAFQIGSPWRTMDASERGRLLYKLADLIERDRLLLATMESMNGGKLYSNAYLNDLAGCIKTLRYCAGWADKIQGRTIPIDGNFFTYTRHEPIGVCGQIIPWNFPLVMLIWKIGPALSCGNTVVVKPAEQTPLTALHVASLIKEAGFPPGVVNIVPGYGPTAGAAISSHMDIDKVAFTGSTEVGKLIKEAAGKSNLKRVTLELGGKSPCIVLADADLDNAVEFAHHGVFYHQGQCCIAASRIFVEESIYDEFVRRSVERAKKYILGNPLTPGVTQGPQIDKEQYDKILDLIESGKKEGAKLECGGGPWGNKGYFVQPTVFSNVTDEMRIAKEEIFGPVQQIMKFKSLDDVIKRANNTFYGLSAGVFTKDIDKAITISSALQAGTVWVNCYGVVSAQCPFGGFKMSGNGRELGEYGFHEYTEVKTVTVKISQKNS
How it was run: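 ALDH1A1 (20 nM final) in 100 mM HEPES pH 7.5, 0.01% Tween 20 was preincubated 15 min at RT with compound (968 pM–57.2 μM final), then started with 1 mM NAD+ and 80 μM propionaldehyde. NADH fluorescence (ex 340/em 450 nm) followed kinetically for 10 min; change normalized to no-inhibitor and no-enzyme controls for percent inhibition and curve fitting.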

MIA PaCa-2 cells = assay: MIA PaCa2 cell-based assay (1,536-well high-content imaging ALDEFLUOR assay); design: species or system human; conditions: Homo sapiens, 0.5 h, ALDEFLUOR BAAA substrate 500 nM, 30 minutes
How it was run: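 High-content ALDEFLUOR imaging readout: BAA-retaining cells in FITC channel scored against Hoechst-counted nuclei. Before imaging, MIA PaCa-2 cells seeded at 1,000 per well received final 500 nM BAAA and 0.5 nM Hoechst with compounds in 16-point series (1.4 nM to 47.8 μM), 30 min, 37° C.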

[1] = ALDH1A1 enzyme 20 nM, NAD+ 1 mM, propionaldehyde 80 μM, read-out: ALDH1A1 IC50

SMILES | IC50 (ALDH1A1 enzyme; [1]) [nM] | IC50 (MIA PaCa-2 cells) [nM] | IC50 (ALDH1A1 enzyme) [nM]
CS(=O)(=O)N1CCN(C(=O)c2cnc3ccc(F)cc3c2N2CCC3(CCCC3=O)CC2)CC1 [Example 251, 8-(6-fluoro-3-(4-(methylsulfonyl)piperazine-1-carbonyl)quinolin-4-yl)-8-azaspiro[4.5]decan-1-one] | < 500 | 500 to 1000 | –
N#CC1(c2ccc(-c3c(C(=O)N4CCC(O)(C5CC5)CC4)cnc4ccc(F)cc34)cc2)CC1 [Cpd. 353, 1-(4-(3-(4-cyclopropyl-4-hydroxypiperidine-1-carbonyl)-6-fluoroquinolin-4-yl)phenyl)cyclopropane-1-carbonitrile] | < 500 | 1000 to 10000 | –
CS(=O)(=O)N1CCN(C(=O)c2cnc3ccc(F)cc3c2N2CCC3(CC2)OCCO3)CC1 [Example 52, (6-fluoro-4-(1,4-dioxa-8-azaspiro[4.5]decan-8-yl)quinolin-3-yl)(4-(methylsulfonyl)piperazin-1-yl)methanone] | < 500 | 1000 to 10000 | –
CC1(C#N)CCN(c2c(C(=O)N3CCC(S(C)(=O)=O)CC3)cnc3c(F)cc(F)cc23)CC1 [Example 189, 1-(6,8-difluoro-3-(4-(methylsulfonyl)piperidine-1-carbonyl)quinolin-4-yl)-4-methylpiperidine-4-carbonitrile] | < 500 | 1000 to 10000 | –
CCOC(=O)N1CCN(C(=O)c2cnc3cc(OC)c(OC)cc3c2N2CCC(C)(C#N)CC2)CC1 [Example 116, Ethyl 4-(4-(4-cyano-4-methylpiperidin-1-yl)-6,7-dimethoxyquinoline-3-carbonyl)piperazine-1-carboxylate] | < 500 | 1000 to 10000 | –
CN(C)C(=O)N1CCN(C(=O)c2cnc3ccc(F)cc3c2N2CCC3(CC2)OCCO3)CC1 [Example 179, 4-(6-fluoro-4-(1,4-dioxa-8-azaspiro[4.5]decan-8-yl)quinoline-3-carbonyl)-N,N-dimethylpiperazine-1-carboxamide] | < 500 | 500 to 1000 | –
CCNC(=O)N1CCN(C(=O)c2cnc3cc(OC)c(OC)cc3c2N2CCC3(CC2)OCCO3)CC1 [Example 140, 4-(6,7-dimethoxy-4-(1,4-dioxa-8-azaspiro[4.5]decan-8-yl)quinoline-3-carbonyl)-N-ethylpiperazine-1-carboxamide] | < 500 | > 10000 | –
COc1ccc2c(N3CCC(C)(C#N)CC3)c(C(=O)N3CCN(C(C)=O)CC3)cnc2c1 [Example 104, 1-(3-(4-acetylpiperazine-1-carbonyl)-7-methoxyquinolin-4-yl)-4-methylpiperidine-4-carbonitrile] | < 500 | > 10000 | –
CC1(C#N)CCN(c2c(C(=O)N3CCC(C(=O)C4CC4)CC3)cnc3c(F)cc(F)cc23)CC1 [Example 195, 1-(3-(4-(cyclopropanecarbonyl)piperidine-1-carbonyl)-6,8-difluoroquinolin-4-yl)-4-methylpiperidine-4-carbonitrile] | < 500 | 1000 to 10000 | –
COc1ccc2ncc(C(=O)N3CCN(C(=O)C4CC4)CC3)c(N3CCC(C)(OC)CC3)c2c1 [Example 26, (4-(cyclopropanecarbonyl)piperazin-1-yl)(6-methoxy-4-(4-methoxy-4-methylpiperidin-1-yl)quinolin-3-yl)methanone] | < 500 | > 10000 | –
CN(C)S(=O)(=O)N1CCN(C(=O)c2cnc3ccc(F)cc3c2-c2ccc(C(C)(C)C#N)cc2)CC1 [Example 261, 4-(4-(4-(2-cyanopropan-2-yl)phenyl)-6-fluoroquinoline-3-carbonyl)-N,N-dimethylpiperazine-1-sulfonamide] | < 500 | < 500 | –
CCNC(=O)N1CCN(C(=O)c2cnc3c(F)cc(F)cc3c2N2CCC3(CC2)OCCO3)CC1 [Example 141, 4-(6,8-difluoro-4-(1,4-dioxa-8-azaspiro[4.5]decan-8-yl)quinoline-3-carbonyl)-N-ethylpiperazine-1-carboxamide] | < 500 | 1000 to 10000 | –
C[C@@H]1CN(C(=O)c2cnc3ccc(F)cc3c2N2CCC3(CC2)OCCO3)C[C@H](C)O1 [Example 55, ((2S*,6R*)-2,6-dimethylmorpholino)(6-fluoro-4-(1,4-dioxa-8-azaspiro[4.5]decan-8-yl)quinolin-3-yl)methanone] | 1000 to 10000 | > 10000 | –
COc1ccc2ncc(C(=O)N3CCN(C(=O)C4CC4)CC3)c(N3CCC4(CCCC4)CC3)c2c1 [Example 17, (4-(cyclopropanecarbonyl)piperazin-1-yl)(6-methoxy-4-(8-azaspiro[4.5]decan-8-yl)quinolin-3-yl)methanone, TFA] | < 500 | 1000 to 10000 | –
CC(=O)N1CCN(C(=O)c2cnc3ccccc3c2N2CCC(C)(C#N)CC2)CC1 [Example 96, 1-(3-(4-acetylpiperazine-1-carbonyl)quinolin-4-yl)-4-methylpiperidine-4-carbonitrile] | 1000 to 10000 | > 10000 | –
N#CC1(c2ccccc2)CCN(c2c(C(=O)N3CC4(CC(O)C4)C3)cnc3ccc(F)cc23)CC1 [Cpd. 329, 1-(6-fluoro-3-(6-hydroxy-2-azaspiro[3.3]heptane-2-carbonyl)quinolin-4-yl)-4-phenylpiperidine-4-carbonitrile] | < 500 | < 500 | –
CC(=O)C1(c2ccccc2)CCN(c2c(C(=O)N3CCN(C(=O)C4CC4)CC3)cnc3ccc(F)cc23)CC1 [Example 215, 1-(1-(3-(4-(cyclopropanecarbonyl)piperazine-1-carbonyl)-6-fluoroquinolin-4-yl)-4-phenylpiperidin-4-yl)ethanone] | < 500 | 500 to 1000 | –
COc1ccc2ncc(C(=O)N3CCC4(CC3)OCCO4)c(N3CCC4(CC3)OCCO4)c2c1 [Example 37, (6-methoxy-4-(1,4-dioxa-8-azaspiro[4.5]decan-8-yl)quinolin-3-yl)(1,4-dioxa-8-azaspiro[4.5]decan-8-yl)methanone] | – | 500 to 1000 | < 500
CC1(C#N)CCN(c2c(C(=O)N3CCN(C(=O)C4CC4)CC3)cnc3cc(F)c(F)cc23)CC1 [Example 126, 1-(3-(4-(cyclopropanecarbonyl)piperazine-1-carbonyl)-6,7-difluoroquinolin-4-yl)-4-methylpiperidine-4-carbonitrile] | < 500 | 1000 to 10000 | –
N#CC1(c2ccc(-c3c(C(=O)Nc4cnn(CC(=O)NC5CC5)c4)cnc4ccc(F)cc34)cc2)CC1 [Cpd. 344, 4-(4-(1-cyanocyclopropyl)phenyl)-N-(1-(2-(cyclopropylamino)-2-oxoethyl)-1H-pyrazol-4-yl)-6-fluoroquinoline-3-carboxamide] | < 500 | 1000 to 10000 | –
COc1cc2ncc(C(=O)N3CCN(C(=O)C4CC4)CC3)c(N3CCC(C)(C#N)CC3)c2cc1OC [Example 109, 1-(3-(4-(cyclopropanecarbonyl)piperazine-1-carbonyl)-6,7-dimethoxyquinolin-4-yl)-4-methylpiperidine-4-carbonitrile] | < 500 | 1000 to 10000 | –
CS(=O)(=O)N1CCN(C(=O)c2cnc3ccc(F)cc3c2N2CCC(Cc3ccccc3)CC2)CC1 [Example 198, (4-(4-benzylpiperidin-1-yl)-6-fluoroquinolin-3-yl)(4-(methylsulfonyl)piperazin-1-yl)methanone] | < 500 | > 10000 | –
COc1ccc2ncc(C(=O)N3CCN(C(=O)C4CC4)CC3)c(N3CCC(C)(C)CC3)c2c1 [Example 18, (4-(cyclopropanecarbonyl)piperazin-1-yl)(4-(4,4-dimethylpiperidin-1-yl)-6-methoxyquinolin-3-yl)methanone, TFA] | < 500 | 1000 to 10000 | –
CC1(C#N)CCN(c2c(C(=O)N3CCN(C(=O)C4CC4)CC3)cnc3ccc(Cl)cc23)CC1 [Example 117, 1-(6-chloro-3-(4-(cyclopropanecarbonyl)piperazine-1-carbonyl)quinolin-4-yl)-4-methylpiperidine-4-carbonitrile] | < 500 | 1000 to 10000 | –
O=C(C1CC1)C1CCN(C(=O)c2cnc3c(F)cc(F)cc3c2N2CCC3(CC2)OCCO3)CC1 [Example 192, (4-(cyclopropanecarbonyl)piperidin-1-yl)(6,8-difluoro-4-(1,4-dioxa-8-azaspiro[4.5]decan-8-yl)quinolin-3-yl)methanone] | < 500 | 500 to 1000 | –
CC1(O)CCN(C(=O)c2cnc3ccc(F)cc3c2N2CCC(C#N)(c3ccccc3)CC2)CC1 [Cpd. 349, 1-(6-fluoro-3-(4-hydroxy-4-methylpiperidine-1-carbonyl)quinolin-4-yl)-4-phenylpiperidine-4-carbonitrile] | < 500 | < 500 | –
CCN(CC)C(=O)N1CCN(C(=O)c2cnc3cc(F)c(F)cc3c2N2CCC3(CC2)OCCO3)CC1 [Example 169, 4-(6,7-difluoro-4-(1,4-dioxa-8-azasprio[4.5]decan-8-yl)quinoline-3-carbonyl)-N,N-diethylpiperazine-1-carboxamide] | < 500 | 1000 to 10000 | –
